From patent US20260256792A1, “TREATMENT OF CHRONIC SPONTANEOUS URTICARIA BY ADMINISTERING (R)-2-[3-[4-AMINO-3-(2-FLUORO-4-PHENOXY-PHENYL)PYRAZOLO[3,4-D]PYRIMIDIN-1-YL]PIPERIDINE-1-CARBONYL]-4-METHYL-4-[4-(OXETAN-3-YL)PIPERAZIN-1-YL]PENT-2-ENENITRILE” (priority 2023, published 2026)

Test system: angioedema in CSU patients
Assay: Phase 2 CSU study: angioedema activity score over 7 days (AAS7)
Format: in vivo, human
Details: 400 mg QPM; for AAS7 Post-baseline Mean (SD) / Participants with AAS7 = 0, Responder n (%) / AAS7 % Change difference for rilzabrutinib vs. placebo LS Mean (95% CI) / AAS7 % Change from baseline LS Mean (SE) / AAS7 Change difference for rilzabrutinib vs. placebo LS Mean (95% CI) / AAS7 Change from baseline LS Mean (SE) / AAS7 = 0, Non-responder n (%) / AAS7 = 0, OR (95% CI) for rilzabrutinib vs. placebo / AAS7 = 0, RRD (%) for rilzabrutinib vs. placebo (95% CI): angioedema at baseline; for Non-responder n (%), AAS7 = 0 / OR (95% CI) for rilzabrutinib vs. placebo, AAS7 = 0 / RRD (%) for rilzabrutinib vs. placebo (95% CI), AAS7 = 0 / Responder n (%), AAS7 = 0: outlier removed
Source text: The study comprises a 12 week, randomized, double-blind, placebo-controlled, multi-center, dose-ranging efficacy and safety phase, followed by a 40 week open label extension (OLE) phase (see FIG. 1). The study consists of three phases and an optional OLE phase. […] The weekly angioedema activity score (AAS7) was proposed as a tertiary endpoint. […] Patients were to complete the AAS using the e-diary. The e-diary was to be used once daily on the same time of each day recording of participant's answers to the angioedema activity score over 7 days (AAS7) questionnaire.

CC(C)(C=C(C#N)C(=O)N1CCC[C@@H](n2nc(-c3ccc(Oc4ccccc4)cc3F)c3c(N)ncnc32)C1)N1CCN(C2COC2)CC1 [rilzabrutinib, (R)-2-[3-[4-amino-3-(2-fluoro-4-phenoxy-phenyl)pyrazolo[3,4-d]pyrimidin-1-yl]piperidine-1-carbonyl]-4-methyl-4-[4-(oxetan-3-yl)piperazin-1-yl]pent-2-enenitrile]
AAS7 Post-baseline Mean (SD) (Week 8, omalizumab-naïve): 24.98 (23.29)
Participants with AAS7 = 0, Responder n (%) (Week 8, omalizumab-naïve): 7 (25.9) n (%)
AAS7 % Change difference for rilzabrutinib vs. placebo LS Mean (95% CI) (Week 9, ITT): 1.53 (−27.52, 30.59) %
AAS7 % Change from baseline LS Mean (SE) (Week 9, ITT): −48.50 (10.95) %
AAS7 Change difference for rilzabrutinib vs. placebo LS Mean (95% CI) (Week 9, ITT): 2.98 (−7.44, 13.40)
AAS7 Change from baseline LS Mean (SE) (Week 9, ITT): −26.47 (3.93)
AAS7 Post-baseline Mean (SD) (Week 9, ITT): 27.24 (21.46)
Non-responder n (%), AAS7 = 0 (Week 9, omalizumab-naïve): 24 (64.9) n (%)
OR (95% CI) for rilzabrutinib vs. placebo, AAS7 = 0 (Week 9, omalizumab-naïve): 0.520
RRD (%) for rilzabrutinib vs. placebo (95% CI), AAS7 = 0 (Week 9, omalizumab-naïve): −15.0 %
Responder n (%), AAS7 = 0 (Week 9, omalizumab-naïve): 13 (35.1) n (%)
AAS7 % Change from baseline LS Mean (SE) (Week 9, omalizumab-naïve): −47.25 (11.58) %
AAS7 = 0, Non-responder n (%) (Week 9, omalizumab-naïve): 22 (81.5) n (%)
AAS7 = 0, OR (95% CI) for rilzabrutinib vs. placebo (Week 9, omalizumab-naïve): 0.431
AAS7 = 0, RRD (%) for rilzabrutinib vs. placebo (95% CI) (Week 9, omalizumab-naïve): −15.5 %
AAS7 Post-baseline Mean (SD) (Week 9, omalizumab-naïve): 27.96 (21.62)
Participants with AAS7 = 0, Responder n (%) (Week 9, omalizumab-naïve): 5 (18.5) n (%)
AAS7 % Change difference for rilzabrutinib vs. placebo LS Mean (95% CI) (Week 10, ITT): −1.14 (−41.08, 38.79) %
AAS7 % Change from baseline LS Mean (SE) (Week 10, ITT): −50.13 (14.94) %
AAS7 Change difference for rilzabrutinib vs. placebo LS Mean (95% CI) (Week 10, ITT): 2.53 (−8.76, 13.81)
AAS7 Change from baseline LS Mean (SE) (Week 10, ITT): −27.81 (4.28)
AAS7 Post-baseline Mean (SD) (Week 10, ITT): 26.59 (23.15)
Non-responder n (%), AAS7 = 0 (Week 10, omalizumab-naïve): 20 (54.1) n (%)
OR (95% CI) for rilzabrutinib vs. placebo, AAS7 = 0 (Week 10, omalizumab-naïve): 0.927
RRD (%) for rilzabrutinib vs. placebo (95% CI), AAS7 = 0 (Week 10, omalizumab-naïve): −1.9 %
Responder n (%), AAS7 = 0 (Week 10, omalizumab-naïve): 17 (45.9) n (%)
AAS7 = 0, Non-responder n (%) (Week 10, omalizumab-naïve): 20 (74.1) n (%)
AAS7 = 0, OR (95% CI) for rilzabrutinib vs. placebo (Week 10, omalizumab-naïve): 0.616
AAS7 = 0, RRD (%) for rilzabrutinib vs. placebo (95% CI) (Week 10, omalizumab-naïve): −9.2 %
AAS7 Post-baseline Mean (SD) (Week 10, omalizumab-naïve): 27.70 (22.96)
Participants with AAS7 = 0, Responder n (%) (Week 10, omalizumab-naïve): 7 (25.9) n (%)
AAS7 % Change difference for rilzabrutinib vs. placebo LS Mean (95% CI) (Week 11, ITT): 7.61 (−19.90, 35.12) %
AAS7 Change difference for rilzabrutinib vs. placebo LS Mean (95% CI) (Week 11, ITT): 5.18 (−6.05, 16.41)
AAS7 Change from baseline LS Mean (SE) (Week 11, ITT): −28.68 (4.16)
AAS7 Post-baseline Mean (SD) (Week 11, ITT): 26.34 (24.19)
Non-responder n (%), AAS7 = 0 (Week 11, omalizumab-naïve): 20 (54.1) n (%)
OR (95% CI) for rilzabrutinib vs. placebo, AAS7 = 0 (Week 11, omalizumab-naïve): 0.819
RRD (%) for rilzabrutinib vs. placebo (95% CI), AAS7 = 0 (Week 11, omalizumab-naïve): −4.7 %
Responder n (%), AAS7 = 0 (Week 11, omalizumab-naïve): 17 (45.9) n (%)
AAS7 = 0, Non-responder n (%) (Week 11, omalizumab-naïve): 19 (70.4) n (%)
AAS7 = 0, OR (95% CI) for rilzabrutinib vs. placebo (Week 11, omalizumab-naïve): 0.650
AAS7 = 0, RRD (%) for rilzabrutinib vs. placebo (95% CI) (Week 11, omalizumab-naïve): −8.6 %
AAS7 Post-baseline Mean (SD) (Week 11, omalizumab-naïve): 27.44 (24.07)
Participants with AAS7 = 0, Responder n (%) (Week 11, omalizumab-naïve): 8 (29.6) n (%)
AAS7 % Change difference for rilzabrutinib vs. placebo LS Mean (95% CI) (Week 12, ITT): 8.18 (−17.80, 34.16) %
AAS7 % Change from baseline LS Mean (SE) (Week 12, ITT): −54.80 (9.75) %
AAS7 Change difference for rilzabrutinib vs. placebo LS Mean (95% CI) (Week 12, ITT): 6.68 (−4.00, 17.35)
AAS7 Change from baseline LS Mean (SE) (Week 12, ITT): −28.63 (4.01)
AAS7 Post-baseline Mean (SD) (Week 12, ITT): 24.92 (22.92)
Non-responder n (%), AAS7 = 0 (Week 12, omalizumab-naïve): 24 (64.9) n (%)
OR (95% CI) for rilzabrutinib vs. placebo, AAS7 = 0 (Week 12, omalizumab-naïve): 0.516
RRD (%) for rilzabrutinib vs. placebo (95% CI), AAS7 = 0 (Week 12, omalizumab-naïve): −15.0 %
Responder n (%), AAS7 = 0 (Week 12, omalizumab-naïve): 13 (35.1) n (%)
AAS7 = 0, Non-responder n (%) (Week 12, omalizumab-naïve): 21 (77.8) n (%)
AAS7 = 0, OR (95% CI) for rilzabrutinib vs. placebo (Week 12, omalizumab-naïve): 0.571
AAS7 = 0, RRD (%) for rilzabrutinib vs. placebo (95% CI) (Week 12, omalizumab-naïve): −11.2 %
AAS7 Change difference for rilzabrutinib vs. placebo LS Mean (95% CI) (Week 12, omalizumab-naïve): 6.41 (−5.00, 17.81)
AAS7 Change from baseline LS Mean (SE) (Week 12, omalizumab-naïve): −26.98 (4.16)
AAS7 Post-baseline Mean (SD) (Week 12, omalizumab-naïve): 25.87 (23.04)
